Measured values: ChEMBL document CHEMBL4138123, “Design, synthesis and biological evaluation of novel pyrazolochalcones as potential modulators of PI3K/Akt/mTOR pathway and inducers of apoptosis in breast cancer cells” (Eur J Med Chem, 2017)

Experiments:
Type in all cases: functional
K562 = test: Cytotoxicity against human K562 cells assessed as growth inhibition after 48 hrs by sulforhodamine B assay; details: K562, 48 h
A549 [1] = test: Cytotoxicity against human A549/ATCC cells assessed as growth inhibition after 48 hrs by sulforhodamine B assay; details: A549, 48 h
HCT-116 [2] = test: Cytotoxicity against human HCT116 cells assessed as growth inhibition after 48 hrs by sulforhodamine B assay; details: HCT-116, 48 h
Malme-3M [3] = test: Cytotoxicity against human MALME-3M cells assessed as growth inhibition after 48 hrs by sulforhodamine B assay
M14 = test: Cytotoxicity against human M14 cells assessed as growth inhibition after 48 hrs by sulforhodamine B assay; details: M14, 48 h
OVCAR-8 [4] = test: Cytotoxicity against human OVCAR8 cells assessed as growth inhibition after 48 hrs by sulforhodamine B assay; details: OVCAR-8, 48 h
CCRF-CEM [5] = test: Cytotoxicity against human CCRF-CEM cells assessed as cell growth at 0.01 uM after 48 hrs by sulforhodamine B assay relative to control; details: read-out: Activity
MDA-MB-435 = test: Cytotoxicity against human MDA-MB-435 cells assessed as cell growth at 0.01 uM after 48 hrs by sulforhodamine B assay relative to control; details: MDA-MB-435, 48 h, read-out: Activity
SF-268 = test: Cytotoxicity against human SF268 cells assessed as cell growth at 0.01 uM after 48 hrs by sulforhodamine B assay relative to control; details: SF-268, 48 h, read-out: Activity
HT-29 [6] = test: Cytotoxicity against human HT-29 cells assessed as cell growth at 0.01 uM after 48 hrs by sulforhodamine B assay relative to control; details: HT-29, 48 h, read-out: Activity
A549 [7] = test: Cytotoxicity against human A549/ATCC cells assessed as cell growth at 0.01 uM after 48 hrs by sulforhodamine B assay relative to control; details: A549, 48 h, read-out: Activity
RPMI-8226 [8] = test: Cytotoxicity against human RPMI8226 cells assessed as cell growth at 0.01 uM after 48 hrs by sulforhodamine B assay relative to control; details: RPMI-8226, 48 h, read-out: Activity
PC-3 = test: Cytotoxicity against human PC3 cells assessed as cell growth at 0.01 uM after 48 hrs by sulforhodamine B assay relative to control; details: PC-3, 48 h, read-out: Activity
HCT-15 = test: Cytotoxicity against human HCT15 cells assessed as cell growth at 0.1 uM after 48 hrs by sulforhodamine B assay relative to control; details: HCT-15, 48 h, read-out: Activity
HT-29 [9] = test: Cytotoxicity against human HT-29 cells assessed as cell growth at 0.1 uM after 48 hrs by sulforhodamine B assay relative to control; details: HT-29, 48 h, read-out: Activity
SK-MEL-28 = test: Cytotoxicity against human SK-MEL-28 cells assessed as cell growth at 0.1 uM after 48 hrs by sulforhodamine B assay relative to control; details: SK-MEL-28, 48 h, read-out: Activity
MDA-MB-468 = test: Cytotoxicity against human MDA-MB-468 cells assessed as cell growth at 0.1 uM after 48 hrs by sulforhodamine B assay relative to control; details: MDA-MB-468, 48 h, read-out: Activity
CCRF-CEM [10] = test: Cytotoxicity against human CCRF-CEM cells assessed as cell growth at 1 uM after 48 hrs by sulforhodamine B assay relative to control; details: read-out: Activity
NCI-H460 = test: Cytotoxicity against human NCI-H460 cells assessed as cell growth at 1 uM after 48 hrs by sulforhodamine B assay relative to control; details: NCI-H460, 48 h, read-out: Activity
SW-620 [11] = test: Cytotoxicity against human SW620 cells assessed as cell growth at 1 uM after 48 hrs by sulforhodamine B assay relative to control; details: SW-620, 48 h, read-out: Activity
UACC-257 = test: Cytotoxicity against human UACC257 cells assessed as cell growth at 1 uM after 48 hrs by sulforhodamine B assay relative to control; details: UACC-257, 48 h, read-out: Activity
OVCAR-8 [12] = test: Cytotoxicity against human OVCAR8 cells assessed as cell growth at 1 uM after 48 hrs by sulforhodamine B assay relative to control; details: OVCAR-8, 48 h, read-out: Activity
NCI-H226 [13] = test: Cytotoxicity against human NCI-H226 cells assessed as cell growth at 10 uM after 48 hrs by sulforhodamine B assay relative to control; details: NCI-H226, 48 h, read-out: Activity
SW-620 [14] = test: Cytotoxicity against human SW620 cells assessed as cell growth at 10 uM after 48 hrs by sulforhodamine B assay relative to control; details: SW-620, 48 h, read-out: Activity
U-251 = test: Cytotoxicity against human U251 cells assessed as cell growth at 10 uM after 48 hrs by sulforhodamine B assay relative to control; details: U-251, 48 h, read-out: Activity
Malme-3M [15] = test: Cytotoxicity against human MALME-3M cells assessed as cell growth at 10 uM after 48 hrs by sulforhodamine B assay relative to control; details: read-out: Activity
OVCAR-8 [16] = test: Cytotoxicity against human OVCAR8 cells assessed as cell growth at 10 uM after 48 hrs by sulforhodamine B assay relative to control; details: OVCAR-8, 48 h, read-out: Activity
DU-145 = test: Cytotoxicity against human DU145 cells assessed as cell growth at 10 uM after 48 hrs by sulforhodamine B assay relative to control; details: DU-145, 48 h, read-out: Activity
RPMI-8226 [17] = test: Cytotoxicity against human RPMI8226 cells assessed as cell growth at 100 uM after 48 hrs by sulforhodamine B assay relative to control; details: RPMI-8226, 48 h, read-out: Activity
NCI-H226 [18] = test: Cytotoxicity against human NCI-H226 cells assessed as cell growth at 100 uM after 48 hrs by sulforhodamine B assay relative to control; details: NCI-H226, 48 h, read-out: Activity
COLO 205 = test: Cytotoxicity against human COLO205 cells assessed as cell growth at 100 uM after 48 hrs by sulforhodamine B assay relative to control; details: COLO 205, 48 h, read-out: Activity
HCT-116 [19] = test: Cytotoxicity against human HCT116 cells assessed as cell growth at 100 uM after 48 hrs by sulforhodamine B assay relative to control; details: HCT-116, 48 h, read-out: Activity
SF-539 = test: Cytotoxicity against human SF539 cells assessed as cell growth at 100 uM after 48 hrs by sulforhodamine B assay relative to control; details: SF-539, 48 h, read-out: Activity
SNB-19 = test: Cytotoxicity against human SNB19 cells assessed as cell growth at 100 uM after 48 hrs by sulforhodamine B assay relative to control; details: SNB-19, 48 h, read-out: Activity
Malme-3M [20] = test: Cytotoxicity against human MALME-3M cells assessed as cell growth at 100 uM after 48 hrs by sulforhodamine B assay relative to control; details: read-out: Activity
SN12C = test: Cytotoxicity against human SN12C cells assessed as cell growth at 100 uM after 48 hrs by sulforhodamine B assay relative to control; details: read-out: Activity

For COc1cc(-c2cc(/C=C/C(=O)c3ccc(N)cc3)[nH]n2)cc(OC)c1OC, the GI50 (K562) was 0.72 µM, the LC50 (concentration killing 50% of cells) (K562) was over 100 µM and the TGI (K562) was 23.6 µM. The GI50 (A549 [1]) was 2.08 µM, the LC50 (concentration giving 50% net cell kill) (A549 [1]) was 86.5 µM and the TGI (A549 [1]) was 7.02 µM. The GI50 (HCT-116 [2]) was 1.1 µM, the LC50 (HCT-116 [2]) was 6.19 µM and the TGI (HCT-116 [2]) was 2.61 µM. For the same molecule, the GI50 (Malme-3M [3]) was 2.05 µM, the LC50 (Malme-3M [3]) was 14.4 µM and the TGI (Malme-3M [3]) was 4.71 µM. The GI50 (M14) was 1.83 µM, the LC50 (concentration killing 50% of cells) (M14) was 8.17 µM and the TGI (M14) was 3.86 µM. For the same molecule, the GI50 (OVCAR-8 [4]) was 2.39 µM, the LC50 (OVCAR-8 [4]) was 34.9 µM and the TGI (OVCAR-8 [4]) was 9.76 µM. For the same molecule, the growth at 0.01 µM (CCRF-CEM [5]) was 96%, the growth at 0.01 µM (MDA-MB-435) was 90% and the growth at 0.01 µM (SF-268) was 99%. It also gave a growth at 0.01 µM (HT-29 [6]) of 98%, a growth at 0.01 µM (A549 [7]) of 96% and a growth at 0.01 µM (RPMI-8226 [8]) of 98%. For the same molecule, the growth at 0.01 µM (PC-3) was 97%, the growth at 0.1 µM (HCT-15) was 94% and the growth at 0.1 µM (HT-29 [9]) was 102%. The growth at 0.1 µM (SK-MEL-28) was 95%, the growth at 0.1 µM (MDA-MB-468) was 83% and the growth at 1 µM (CCRF-CEM [10]) was 36%. It also gave a growth at 1 µM (NCI-H460) of 78%, a growth at 1 µM (SW-620 [11]) of 82% and a growth at 1 µM (UACC-257) of 91%. It also gave a growth at 1 µM (OVCAR-8 [12]) of 81%, a growth at 10 µM (NCI-H226 [13]) of -73% and a growth at 10 µM (SW-620 [14]) of -20%. The growth at 10 µM (U-251) was -96%, the growth at 10 µM (Malme-3M [15]) was -45% and the growth at 10 µM (OVCAR-8 [16]) was -1%. The growth at 10 µM (DU-145) was -50%, the growth at 100 µM (RPMI-8226 [17]) was -40% and the growth at 100 µM (NCI-H226 [18]) was -59%. For the same molecule, the growth at 100 µM (COLO 205) was -78%, the growth at 100 µM (HCT-116 [19]) was -73% and the growth at 100 µM (SF-539) was -99%. It also gave a growth at 100 µM (SNB-19) of -94%, a growth at 100 µM (Malme-3M [20]) of -76% and a growth at 100 µM (SN12C) of -86%.
